Measured values as given in patent US20190060391A1, “POWDER FORMULATION HAVING HY[…] HYP[…] AND METHOD FOR PREPARING THE SAME” (INFINITUS (CHINA) COMPANY LTD., priority 2017, published 2019).
Counter-ions that a name gives are not always drawn.

How the values were obtained:
Body weight of mice = format: in vivo, ICR mouse; settings: alloxan mice, positive control 230 mg/kg
Description: The mice were weighed after 1-day adaptive feed, and the mice were weighed once a week and recorded. The administration of test sample to the rats lasted for 45 days, and the administration to mice lasted for 55 days.

[1] = Organ coefficient of mice; format: in vivo, ICR mouse; settings: alloxan mice, positive control 230 mg/kg
Experimental: The mice were subjected to euthanasia and dissection. Hearts, livers, spleens, lungs, kidneys and pancreases of the mice were weighed, imaged and recorded, respectively. The organ coefficients were calculated. In addition, pancreases from each group were respectively immersed into formalin-containing bottles, and the sections were sent for pathological examination.
After administration of the test sample, the hearts, livers, spleens, lungs, kidneys and pancreases of the mice in each group were weighed respectively, and organ coefficients of each group were compared.

[2] = Organ coefficient of rats; format: in vivo, SD rat; settings: diabetic rats, positive control 170 mg/kg
Experimental: The rats were subjected to euthanasia and dissection. Hearts, livers, spleens, lungs, kidneys and parts of the pancreases of the rats were weighed, imaged and recorded, respectively. The organ coefficients were calculated. In addition, pancreases from each group were respectively immersed into formalin-containing bottles.

alloxan-induced mice = assay: Fasting blood glucose and glucose tolerance in alloxan hyperglycemia model mice; format: in vivo, ICR mouse; settings: for Blood glucose decreasing rate of the mice: positive control 230 mg/Kg; for Blood glucose of the mice: positive control 230 mg/kg
Experimental: (§1) Method for preparing the solution of the test sample (500 mg/kg): 2.3011 g of the test sample was precisely weighed and 46 mL of distilled water was added to prepare a solution of 0.05 g/mL, i.e., high-dose group of the test sample (500 mg/kg, 1 mL/100 g), which was equal to 30 times the recommended amount for human.
as §1, with “(170” for “(500”, “0.6970” for “2.3011”, “41” for “46”, “0.017” for “0.05”, “medium-dose” for “high-dose”, “10” for “30”
as §1, with “(85” for “(500”, “0.3396” for “2.3011”, “40” for “46”, “0.0085” for “0.05”, “low-dose” for “high-dose”, “5” for “30”
Method for preparing the positive control sample: the metformin hydrochloride tablet was milled into fine powders by a mortar, 0.1470 g powder was precisely weighed and transferred to a 10 mL-centrifugal tube. 5 mL of distilled water was added by a pipette to prepare a solution with a concentration of 0.023 g/mL, i.e., metformin positive control group for mouse (230 mg/kg, 0.1 ml/10 g), which was equal to 13.5 times the recommended amount for human.
The administration of test sample to the rats lasted for 45 days, and the administration to mice lasted for 55 days.
After 3-day of adaptive housing with normal feeding, 15 mice were randomly chosen and subjected to fasting for 3 to 5 hours. The fasting blood glucose value was measured as the basal blood glucose value of this batch of animals. Thereafter, the mice were subjected to fasting for 24 hours (with free access to water). Except for the blank group and the negative control group, 96 mg/kg of alloxan (fresh prepared) were injected via caudal vein to establish the model, at an administration amount of 0.1 mL/10 g. 4 days later, the animals were fasted for 3 to 5 hours and the blood glucose was tested. Animals with blood glucose of 10 to 25 mmol/L were considered as hyperglycemia model animals. The fasting blood glucose value of mice was tested every two week. After the experiments, animals in each group were fasted for 3 to 4 hours, and the fasting blood glucose, glucose tolerance, blood glucose decreasing rate and the area under the blood glucose curve were tested.

Body weight of rats = format: in vivo, SD rat; parameters: unit not given here; settings: diabetic rats, positive control 170 mg/kg
Description: The rats were weighed after 1-day adaptive feed, and the rats were weighed once a week and recorded.

diabetic rats [3] = assay: Cholesterol level and triglyceride level in serum of rats; format: in vivo, SD rat; settings: positive control 170 mg/kg
Experimental: After the experiment, the rats in each group were fasted for 3 to 4 hours and peritoneal injected with pentobarbital sodium solution (1 mL/100 g) for anesthesia. 8 mL of blood was taken from the femoral artery and centrifuged at 4500 r for 6 minutes at 4° C. The serum was taken and the cholesterol level was tested by a cholesterol kit, and the triglyceride level was tested by a triglyceride kit.

diabetic rats [4] = assay: Fasting blood glucose and glucose tolerance in diabetic rats (high calorie feed plus alloxan); format: in vivo, SD rat; settings: for Blood Glucose at 0 hour / Blood Glucose at 2th hour / Blood Glucose at 0.5 hour: rats, positive control 170 mg/kg
Experimental: as §1
as §1, with “(170” for “(500”, “0.6970” for “2.3011”, “41” for “46”, “0.017” for “0.05”, “medium-dose” for “high-dose”, “10” for “30”
as §1, with “(85” for “(500”, “0.3396” for “2.3011”, “40” for “46”, “0.0085” for “0.05”, “low-dose” for “high-dose”, “5” for “30”
Method for preparing the positive control sample: the metformin hydrochloride tablet was milled into fine powders by a mortar, 0.9329 g powder was precisely weighed and transferred to a 100 mL-beaker. 43 mL of distilled water was added by using a 100 mL-graduated cylinder, preparing solution with a concentration of 0.017 g/mL, i.e., metformin positive control group for rat (170 mg/kg, 1 ml/100 g), which was equal to 10 times the recommended amount for human.
After 5-day of adaptive housing with normal feeding, the rats were fasted for 3 to 4 hours and blood samples were taken from the tails. The fasting blood glucose value, which was the blood glucose value before administration of glucose (0 hour), was tested. After administration of 2.5 g/kgBW glucose, the blood glucose level was tested at the 0.5 hour and the 2nd hour as the basal value of that batch of animals. The rats were divided into 6 groups according to the blood glucose value at 0 hour and the 0.5 hour, including one blank group, one positive control group, one model group and 3 dosing groups of the test sample. There were 20 rats in the high-dose group, and 18 rats in the other groups. The blank group was not treated. The positive control group was administered with metformin solution by intragastric gavage. The 3 dosing groups of the test sample were administered with test sample solutions of different concentrations by intragastric gavage. The model group was administered with the solvent of the same volume. […] Normal feeds were provided to all groups. One week later, high calorie feeds were provided to the model group, positive control group and three dosing groups of the test sample. 30 days after the feeding, the rats were fasted for 24 hours. The model group and the three dosing groups of the test sample were respectively peritoneal injected with alloxan of 200 mg/kgBW (the injection amount was […] weight) on the base of high calorie feed. The model group and 3 dosing groups of the test sample were continuously fed on high calorie feeds for 3 days. When the experiment ended, animals in each group were fasted for 3 to 4 hours, and the fasting blood glucose, glucose tolerance and area under the blood glucose curve were measured.

Heart Coefficient [1]: 0.50 ± 0.09 | Kidney Coefficient [1]: 2.17 ± 0.61 | Liver Coefficient [1]: 4.96 ± 1.67 | Lung Coefficient [1]: 0.67 ± 0.14 | Pancreas Coefficient [1]: 0.76 ± 0.31 | Spleen Coefficient [1]: 0.47 ± 0.37 | Heart Coefficient [2]: 0.36 ± 0.06 | Kidney Coefficient [2]: 0.88 ± 0.20 | Liver Coefficient [2]: 3.36 ± 0.48 | Lung Coefficient [2]: 0.53 ± 0.15 | Pancreas Coefficient [2]: 0.37 ± 0.13 | Spleen Coefficient [2]: 0.16 ± 0.09
Structure (SMILES): CN(C)C(=N)N=C(N)N [metformin, metformin hydrochloride]
Changes of body weight of mice (Body weight of mice; 1 d): 21.1 ± 2.0 g | Changes of body weight of mice (Body weight of mice; 2 d): 23.3 ± 2.3 g | Changes of body weight of mice (Body weight of mice; 6 d): 22.1 ± 3.1 g | Changes of body weight of mice (Body weight of mice; 8 d): 22.8 ± 5.8 g | Changes of body weight of mice (Body weight of mice; 11 d): 23.1 ± 4.0 g | Changes of body weight of mice (Body weight of mice; 20 d): 25.6 ± 5.4 g | Changes of body weight of mice (Body weight of mice; 27 d): 25.3 ± 4.2 g | Changes of body weight of mice (Body weight of mice; 34 d): 27.8 ± 4.1 g | Changes of body weight of mice (Body weight of mice; 41 d): 29.1 ± 4.8 g | Changes of body weight of mice (Body weight of mice; 48 d): 27.0 ± 5.4 g | Changes of body weight of mice (Body weight of mice; 55 d): 27.2 ± 5.2 g | Blood glucose decreasing rate of the mice (alloxan-induced mice; 45 d): −20.06% ± 0.30 | Blood glucose decreasing rate of the mice (alloxan-induced mice; 55 d): 21.60% ± 0.48 | Blood glucose of the mice (alloxan-induced mice; 0 d): 22.87 ± 3.66 mmol/L | Blood glucose of the mice (alloxan-induced mice; 16 d): 13.60 ± 4.82 mmol/L | Blood glucose of the mice (alloxan-induced mice; 30 d): 15.57 ± 5.85 mmol/L | Blood glucose of the mice (alloxan-induced mice; 45 d): 18.28 ± 5.86 mmol/L | Blood glucose of the mice (alloxan-induced mice; 55 d): 17.93 ± 10.23 mmol/L | Effect on fasting blood glucose vs model group (in words) (alloxan-induced mice; positive control group): significantly improved symptom of the hyperglycemia | Weight changes of rats (Body weight of rats; 3 d): 207.00 ± 10.91 | Weight changes of rats (Body weight of rats; 6 d): 225.22 ± 12.01 | Weight changes of rats (Body weight of rats; 8 d): 244.28 ± 10.93 | Weight changes of rats (Body weight of rats; 12 d): 277.50 ± 8.25 | Weight changes of rats (Body weight of rats; 22 d): 325.89 ± 18.39 | Weight changes of rats (Body weight of rats; 28 d): 373.67 ± 21.40 | Weight changes of rats (Body weight of rats; 35 d): 396.22 ± 23.32 | Weight changes of rats (Body weight of rats; 42 d): 403.83 ± 21.22 | Weight changes of rats (Body weight of rats; 45 d): 361.19 ± 27.43 | Cholesterol Index (diabetic rats [3]): 3.71 ± 1.57 | Triglyceride Index (diabetic rats [3]): 9.47 ± 5.29 | Area under the blood glucose curve vs model group (in words) (diabetic rats [4]; diabetic rats, glucose tolerance test): showed significant differences | Effect on fasting blood glucose vs model group (in words) (diabetic rats [4]; diabetic rats, positive control group): significantly improved symptom of the hyperglycemia | Blood Glucose at 0 hour (diabetic rats [4]; 4D): 6.00 ± 0.87 | Blood Glucose at 2th hour (diabetic rats [4]; 4D): 5.75 ± 0.97 | Blood Glucose at 0.5 hour (diabetic rats [4]; 4D): 8.33 ± 1.54 | Blood Glucose at 0 hour (diabetic rats [4]; 45D): 12.05 ± 4.98 | Blood Glucose at 2th hour (diabetic rats [4]; 45D): 13.31 ± 5.83 | Blood Glucose at 0.5 hour (diabetic rats [4]; 45D): 15.98 ± 4.87
